{"source": "patent US11530235B2", "about": "“Compounds and methods used in assessing mono-PARP activity” (Oregon Health & Science University, priority 2015, dated 2022)", "key": {"L926A-PARP10cat": {"biological_target": "L926A-PARP10cat (Homo sapiens, UniProt Q53GL7, L926A)", "sequence (Q53GL7 806-1025 L926A)": "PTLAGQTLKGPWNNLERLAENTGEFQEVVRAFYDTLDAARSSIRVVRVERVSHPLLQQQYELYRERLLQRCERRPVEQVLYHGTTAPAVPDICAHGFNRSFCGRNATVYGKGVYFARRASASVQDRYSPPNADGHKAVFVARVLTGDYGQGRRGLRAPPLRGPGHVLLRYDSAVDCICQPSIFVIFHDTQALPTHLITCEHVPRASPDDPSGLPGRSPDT", "assay": "SRPK2 MARylation assay with L926A-PARP10cat", "conditions": "relative to WT-PARP10cat; 100 μM NAD+ analogue, in-gel fluorescence"}, "WT-PARP10cat": {"biological_target": "T1, WT-PARP10cat (Homo sapiens, UniProt Q53GL7)", "T1 sequence (Q53GL7 806-1025 limits assumed)": "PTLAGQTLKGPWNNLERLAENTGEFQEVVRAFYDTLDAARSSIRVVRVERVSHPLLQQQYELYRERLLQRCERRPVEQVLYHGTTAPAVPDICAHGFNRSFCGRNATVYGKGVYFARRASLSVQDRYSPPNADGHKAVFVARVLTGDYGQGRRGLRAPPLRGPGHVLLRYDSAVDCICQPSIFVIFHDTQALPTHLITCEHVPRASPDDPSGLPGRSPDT", "assay": "SRPK2 MARylation assay with WT-PARP10cat", "conditions": "100 μM NAD+ analogue, 2 hours at 30° C., in-gel fluorescence"}, "GFP-WT-PARP10": {"biological_target": "T2, GFP-WT-PARP10 (Homo sapiens, UniProt Q53GL7)", "T2 sequence (Q53GL7 1-1025)": "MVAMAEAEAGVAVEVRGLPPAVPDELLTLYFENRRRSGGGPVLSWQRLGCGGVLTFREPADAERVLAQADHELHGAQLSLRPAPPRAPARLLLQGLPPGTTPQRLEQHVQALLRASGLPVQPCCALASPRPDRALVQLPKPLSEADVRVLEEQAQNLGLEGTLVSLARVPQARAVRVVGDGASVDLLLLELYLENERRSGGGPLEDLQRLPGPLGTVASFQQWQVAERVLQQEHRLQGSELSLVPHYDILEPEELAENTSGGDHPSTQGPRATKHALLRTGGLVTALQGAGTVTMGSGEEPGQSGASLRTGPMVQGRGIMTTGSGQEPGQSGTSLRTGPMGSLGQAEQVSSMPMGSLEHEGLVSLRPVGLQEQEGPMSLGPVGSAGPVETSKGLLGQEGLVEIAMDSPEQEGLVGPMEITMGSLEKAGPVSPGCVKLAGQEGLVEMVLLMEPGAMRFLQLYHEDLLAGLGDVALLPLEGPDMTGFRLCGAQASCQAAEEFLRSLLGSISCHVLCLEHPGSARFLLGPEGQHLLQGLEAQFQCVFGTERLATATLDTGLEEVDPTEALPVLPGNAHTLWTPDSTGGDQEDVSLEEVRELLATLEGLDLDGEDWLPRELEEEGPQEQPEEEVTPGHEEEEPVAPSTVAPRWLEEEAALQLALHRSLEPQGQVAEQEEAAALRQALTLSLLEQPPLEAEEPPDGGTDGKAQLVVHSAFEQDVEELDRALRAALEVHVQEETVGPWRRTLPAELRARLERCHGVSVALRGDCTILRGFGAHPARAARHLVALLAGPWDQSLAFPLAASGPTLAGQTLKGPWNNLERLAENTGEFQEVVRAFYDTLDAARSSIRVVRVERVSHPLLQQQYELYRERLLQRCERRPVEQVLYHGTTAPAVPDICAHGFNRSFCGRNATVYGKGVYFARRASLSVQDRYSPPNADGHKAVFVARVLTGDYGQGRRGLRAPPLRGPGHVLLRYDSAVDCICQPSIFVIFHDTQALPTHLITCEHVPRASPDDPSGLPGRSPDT", "assay": "Lysate labeling, HEK 293T cells expressing WT-PARP10", "conditions": "HEK 293T lysate, WT-PARP10, 100 μM, click conjugation with biotin-azide"}, "WT-PARP11": {"biological_target": "T3, WT-PARP11 (Homo sapiens, UniProt Q9NR21)", "T3 sequence (Q9NR21 1-331 isoform Q9NR21-1)": "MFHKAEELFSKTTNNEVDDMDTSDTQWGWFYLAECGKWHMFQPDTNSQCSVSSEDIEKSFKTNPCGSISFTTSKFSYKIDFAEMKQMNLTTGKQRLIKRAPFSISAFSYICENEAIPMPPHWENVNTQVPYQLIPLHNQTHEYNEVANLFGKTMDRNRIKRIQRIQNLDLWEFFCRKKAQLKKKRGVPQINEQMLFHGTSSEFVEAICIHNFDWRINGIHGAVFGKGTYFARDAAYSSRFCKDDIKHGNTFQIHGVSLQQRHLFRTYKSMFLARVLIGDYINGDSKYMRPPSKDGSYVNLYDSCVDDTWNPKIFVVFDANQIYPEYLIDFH", "assay": "Lysate labeling, HEK 293T cells expressing WT-PARP11", "conditions": "HEK 293T lysate"}, "WT-PARP15cat": {"biological_target": "T4, WT-PARP15cat (Homo sapiens, UniProt Q460N3)", "T4 sequence (Q460N3 482-678 limits assumed)": "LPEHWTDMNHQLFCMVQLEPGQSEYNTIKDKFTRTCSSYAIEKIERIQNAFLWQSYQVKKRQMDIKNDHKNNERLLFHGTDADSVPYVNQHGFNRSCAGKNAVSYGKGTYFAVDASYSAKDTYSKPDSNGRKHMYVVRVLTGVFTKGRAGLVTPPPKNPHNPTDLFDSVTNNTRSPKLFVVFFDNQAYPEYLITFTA", "assay": "In vitro SRPK2 MARylation with WT-PARP15cat", "type": "biochemical"}}, "data": [{"compound": "C#CCNc1ncnc2c1ncn2[C@@H]1O[C@H](COP(=O)(O)OP(=O)([O-])OC[C@H]2O[C@@H]([n+]3cccc(C(N)=O)c3)[C@H](O)[C@@H]2O)[C@@H](O)[C@H]1O", "note": "[6-a-NAD+]", "values": [{"measurement": "use as substrate to mediate SRPK2 MARylation by L926A-PARP10cat", "setting": "L926A-PARP10cat", "value": "to a lesser extent"}, {"measurement": "use as substrate to mediate SRPK2 MARylation by WT-PARP10cat", "setting": "WT-PARP10cat", "value": "used as a substrate"}]}, {"compound": "5-benzyl-6-a-NAD+ [5-Bn-6-a-NAD+]", "values": [{"measurement": "labeling of lysate proteins (streptavidin-HRP)", "setting": "GFP-WT-PARP10", "value": "low-level of background labeling"}, {"measurement": "labeling of lysate proteins (streptavidin-HRP)", "setting": "WT-PARP11", "value": "Minimal background labeling"}, {"measurement": "use as substrate by WT-PARP15cat to MARylate SRPK2", "setting": "WT-PARP15cat", "value": "did not use"}]}]}
